Measured values from ChEMBL document CHEMBL1131783, “Prodrugs of CL316243: a selective beta3-adrenergic receptor agonist for treating obesity and diabetes” (Bioorg Med Chem Lett, 1999).

How the values were obtained:
[1] = target: Beta-3 adrenergic receptor (Rattus norvegicus) (UniProt P26255); assay: Beta-3-adrenergic activity measured by percent response against free fatty acid (FFA) in rat plasma at a dosage of 0.1 mg/kg; type: functional, organism-based; design: dose 0.1 mg/kg
Mus musculus = species: Mus musculus; assay: The compound was evaluated for the % glucose lowering along with drug intake over the test period of 5-7 days in mice
[2] = target: Beta-3 adrenergic receptor (Rattus norvegicus) (UniProt P26255); assay: Effective dose required for beta-3-adrenergic activity against free fatty acid (FFA) in rat plasma; type: functional
[3] = target: Beta-3 adrenergic receptor (Rattus norvegicus) (UniProt P26255); assay: Compound was evaluated for the beta-3-adrenergic activity by measuring % response against free fatty acid (FFA) in rat plasma at a dosage of 0.1 mg/kg; type: functional, organism-based; design: dose 0.1 mg/kg
[4] = Partition coefficient (logP); type: physicochemical; conditions: octanol/water

Beta-3 adrenergic receptor (Rattus norvegicus), sequence (P26255 whole entry): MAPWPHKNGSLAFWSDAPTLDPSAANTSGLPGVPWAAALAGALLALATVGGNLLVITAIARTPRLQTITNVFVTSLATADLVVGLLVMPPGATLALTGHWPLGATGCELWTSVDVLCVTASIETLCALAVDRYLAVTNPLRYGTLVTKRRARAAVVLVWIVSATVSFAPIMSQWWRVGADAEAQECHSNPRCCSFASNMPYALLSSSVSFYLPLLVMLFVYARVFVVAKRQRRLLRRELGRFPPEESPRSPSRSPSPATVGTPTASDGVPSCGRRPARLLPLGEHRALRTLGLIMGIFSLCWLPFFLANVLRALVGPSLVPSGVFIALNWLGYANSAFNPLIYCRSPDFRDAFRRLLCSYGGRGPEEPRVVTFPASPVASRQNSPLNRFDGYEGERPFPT

Row | SMILES | Response [1] [%] | other results
1 | C[C@H](Cc1ccc2c(c1)OC(C(=O)OCCc1cccs1)(C(=O)OCCc1cccs1)O2)NC[C@H](O)c1cccc(Cl)c1 | 77 | ED50 (Mus musculus): 0.208 mg/kg; ED50 [2]: 0.076 mg/kg
2 | C[C@H](Cc1ccc2c(c1)OC(C(=O)[O-])(C(=O)[O-])O2)NC[C@H](O)c1cccc(Cl)c1.[Na+].[Na+] |  | Response [3]: 2%; ED50 (Mus musculus): 0.54 mg/kg; ED50 [2]: 0.24 mg/kg; logP [4]: 0.046
3 | C[C@H](Cc1ccc2c(c1)OC(C(=O)OCCc1ccccc1)(C(=O)OCCc1ccccc1)O2)NC[C@H](O)c1cccc(Cl)c1 | 95 | ED50 (Mus musculus): 0.156 mg/kg; ED50 [2]: 0.071 mg/kg
4 | CC(OC(=O)c1ccccc1)OC(=O)C1(C(=O)OC(C)OC(=O)c2ccccc2)Oc2ccc(C[C@@H](C)NC[C@H](O)c3cccc(Cl)c3)cc2O1 (stereo partly drawn) | 30 | 
5 | C[C@H](Cc1ccc2c(c1)OC(C(=O)OCc1ccccc1)(C(=O)OCc1ccccc1)O2)NC[C@H](O)c1cccc(Cl)c1 | 21 | 
6 | C[C@H](Cc1ccc2c(c1)OC(C(=O)OCC(=O)c1ccccc1)(C(=O)OCC(=O)c1ccccc1)O2)NC[C@H](O)c1cccc(Cl)c1 | 7 | 
7 | Cc1cccc(CCOC(=O)C2(C(=O)OCCc3cccc(C)c3)Oc3ccc(C[C@@H](C)NC[C@H](O)c4cccc(Cl)c4)cc3O2)c1 | 39 | 
8 | C[C@H](Cc1ccc2c(c1)OC(C(=O)O)(C(=O)OCC(C)(C)C)O2)NC[C@H](O)c1cccc(Cl)c1 (stereo partly drawn) | 81 | 
9 | C[C@H](Cc1ccc2c(c1)OC(C(=O)OCC(C)(C)Cc1ccccc1)(C(=O)OCC(C)(C)Cc1ccccc1)O2)NC[C@H](O)c1cccc(Cl)c1 | 25 | 
10 | C[C@H](Cc1ccc2c(c1)OC(C(=O)OC1CCCCC1)(C(=O)OC1CCCCC1)O2)NC[C@H](O)c1cccc(Cl)c1 | 59 | 
11 | C[C@H](Cc1ccc2c(c1)OC(C(=O)O)(C(=O)OCCC1CC1)O2)NC[C@H](O)c1cccc(Cl)c1 (stereo partly drawn) | 19 | 
12 | C[C@H](Cc1ccc2c(c1)OC(C(=O)OCCc1cccc(Br)c1)(C(=O)OCCc1cccc(Br)c1)O2)NC[C@H](O)c1cccc(Cl)c1 | 71 | 
13 | C[C@H](Cc1ccc2c(c1)OC(C(=O)O)(C(=O)OCCOc1ccccc1)O2)NC[C@H](O)c1cccc(Cl)c1 (stereo partly drawn) | 51 | 
14 | C[C@H](Cc1ccc2c(c1)OC(C(=O)OCC1CCOC1)(C(=O)OCC1CCOC1)O2)NC[C@H](O)c1cccc(Cl)c1 (stereo partly drawn) | 68 | 
15 | C[C@H](Cc1ccc2c(c1)OC(C(=O)O)(C(=O)OCCOCc1ccccc1)O2)NC[C@H](O)c1cccc(Cl)c1 (stereo partly drawn) | 109 | 
16 | C[C@H](Cc1ccc2c(c1)OC(C(=O)OCC1CCC1)(C(=O)OCC1CCC1)O2)NC[C@H](O)c1cccc(Cl)c1 | 83 | ED50 (Mus musculus): 0.128 mg/kg; ED50 [2]: 0.071 mg/kg; logP [4]: 2.34
17 | C[C@H](Cc1ccc2c(c1)OC(C(=O)OCC1CCCCC1)(C(=O)OCC1CCCCC1)O2)NC[C@H](O)c1cccc(Cl)c1 | 22 | 
18 | CCOC(=O)C1(C(=O)OCC)Oc2ccc(C[C@@H](C)NC[C@H](O)c3cccc(Cl)c3)cc2O1 | 114 | ED50 (Mus musculus): 0.1 mg/kg; ED50 [2]: 0.034 mg/kg; logP [4]: 0.35
19 | C[C@H](Cc1ccc2c(c1)OC(C(=O)OCC1(C)CCCCC1)(C(=O)OCC1(C)CCCCC1)O2)NC[C@H](O)c1cccc(Cl)c1 | 84 | 
20 | C[C@H](Cc1ccc2c(c1)OC(C(=O)OCCc1cccc(C(F)(F)F)c1)(C(=O)OCCc1cccc(C(F)(F)F)c1)O2)NC[C@H](O)c1cccc(Cl)c1 | 28 | 
21 | C[C@H](Cc1ccc2c(c1)OC(C(=O)OCC1CCCO1)(C(=O)OCC1CCCO1)O2)NC[C@H](O)c1cccc(Cl)c1 (stereo partly drawn) | 24 | 
22 | CC(OC(=O)C1(C(=O)OC(C)c2ccccc2)Oc2ccc(C[C@@H](C)NC[C@H](O)c3cccc(Cl)c3)cc2O1)c1ccccc1 (stereo partly drawn) | 78 | 
23 | C[C@H](Cc1ccc2c(c1)OC(C(=O)OCCCCc1ccccc1)(C(=O)OCCCCc1ccccc1)O2)NC[C@H](O)c1cccc(Cl)c1 | 43 | 

More lines, main results first:

Row | Response [1] [%] | SMILES | other results
24 | 71 | C[C@H](Cc1ccc2c(c1)OC(C(=O)OCCC(C)(C)C)(C(=O)OCCC(C)(C)C)O2)NC[C@H](O)c1cccc(Cl)c1 | ED50 (Mus musculus): 0.201 mg/kg; ED50 [2]: 0.08 mg/kg; logP [4]: 3.21
25 | 134 | C[C@H](Cc1ccc2c(c1)OC(C(=O)OCC(C)(C)C)(C(=O)OCC(C)(C)C)O2)NC[C@H](O)c1cccc(Cl)c1 | ED50 (Mus musculus): 0.028 mg/kg; ED50 [2]: 0.027 mg/kg; logP [4]: 2.16
26 | 46 | CCCCCCCCOC(=O)C1(C(=O)OCCCCCCCC)Oc2ccc(C[C@@H](C)NC[C@H](O)c3cccc(Cl)c3)cc2O1 | 
27 | 2 | CCC(=O)OC(C)OC(=O)C1(C(=O)OC(C)OC(=O)CC)Oc2ccc(C[C@@H](C)NC[C@H](O)c3cccc(Cl)c3)cc2O1 (stereo partly drawn) | 
28 | 86 | C=CCOC(=O)C1(C(=O)OCC=C)Oc2ccc(C[C@@H](C)NC[C@H](O)c3cccc(Cl)c3)cc2O1 | 
29 | 109 | CC(C)CCOC(=O)C1(C(=O)OCCC(C)C)Oc2ccc(C[C@@H](C)NC[C@H](O)c3cccc(Cl)c3)cc2O1 | ED50 (Mus musculus): 0.11 mg/kg; ED50 [2]: 0.026 mg/kg; logP [4]: 3.77
30 | 86 | CC(C)OCCOC(=O)C1(C(=O)OCCOC(C)C)Oc2ccc(C[C@@H](C)NC[C@H](O)c3cccc(Cl)c3)cc2O1 | 
31 | 65 | COCCOC(=O)C1(C(=O)OCCOC)Oc2ccc(C[C@@H](C)NC[C@H](O)c3cccc(Cl)c3)cc2O1 | 
32 | 30 | C[C@H](Cc1ccc2c(c1)OC(C(=O)O)(C(=O)OCC[Si](C)(C)C)O2)NC[C@H](O)c1cccc(Cl)c1 (stereo partly drawn) | 
33 | 24 | CCCC(=O)OCOC(=O)C1(C(=O)OCOC(=O)CCC)Oc2ccc(C[C@@H](C)NC[C@H](O)c3cccc(Cl)c3)cc2O1 | 
34 | 73 | C[C@H](Cc1ccc2c(c1)OC(C(=O)OC[Si](C)(C)C)(C(=O)OC[Si](C)(C)C)O2)NC[C@H](O)c1cccc(Cl)c1 | 
35 | 51 | CCCCCCOC(=O)C1(C(=O)OCCCCCC)Oc2ccc(C[C@@H](C)NC[C@H](O)c3cccc(Cl)c3)cc2O1 | 
36 | 39 | CC(=O)OCOC(=O)C1(C(=O)OCOC(C)=O)Oc2ccc(C[C@@H](C)NC[C@H](O)c3cccc(Cl)c3)cc2O1 | 
37 | 23 | CCCCCCC(=O)OCOC(=O)C1(C(=O)OCOC(=O)CCCCCC)Oc2ccc(C[C@@H](C)NC[C@H](O)c3cccc(Cl)c3)cc2O1 | 
38 | 100 | CC(C)OC(=O)C1(C(=O)OC(C)C)Oc2ccc(C[C@@H](C)NC[C@H](O)c3cccc(Cl)c3)cc2O1 | ED50 (Mus musculus): 0.056 mg/kg; ED50 [2]: 0.061 mg/kg; logP [4]: 1.29
39 | 63 | CC(C)COCCOC(=O)C1(C(=O)OCCOCC(C)C)Oc2ccc(C[C@@H](C)NC[C@H](O)c3cccc(Cl)c3)cc2O1 | 
40 | 22 | CCOC(=O)COC(=O)C1(C(=O)OCC(=O)OCC)Oc2ccc(C[C@@H](C)NC[C@H](O)c3cccc(Cl)c3)cc2O1 | 
41 | 14 | C[C@H](Cc1ccc2c(c1)OC(C(=O)OCOC(=O)C(C)(C)C)(C(=O)OCOC(=O)C(C)(C)C)O2)NC[C@H](O)c1cccc(Cl)c1 | 
42 | 58 | CCCCOCCOC(=O)C1(C(=O)OCCOCCCC)Oc2ccc(C[C@@H](C)NC[C@H](O)c3cccc(Cl)c3)cc2O1 | 
43 | 78 | CC(C)OC(=O)COC(=O)C1(C(=O)OCC(=O)OC(C)C)Oc2ccc(C[C@@H](C)NC[C@H](O)c3cccc(Cl)c3)cc2O1 | 
